The text below walks through data of PMC8511391, “Optimization of Pichia pastoris Expression System for High-Level Production of Margatoxin” (Frontiers in Pharmacology, 2021).

Assay [1] relates to CD40L expression in CD4^+ TEM cells. Put plainly: CD40L (CD154) expression in anti-CD3-stimulated CD4+ TEM lymphocytes (flow cytometry). The format is cell-based, human. The settings on record: for CD40L expression of stimulated, treated cells vs unstimulated cells: TrMgTx 8.5 nM or UrMgTx 5 nM; for CD40L expression of stimulated, treated cells vs unstimulated cells / effect on upregulation of CD40L expression: 24 h; for inhibition of CD40L expression: 24 h anti-CD3 stimulation, three donors, technical duplicates, MFI normalized to stimulated; for effect on upregulation of CD40L expression: ∼100× K d (TrMgTx 8.5 nM, UrMgTx 5 nM), anti-CD3. The text has this: (§1) The mononuclear cells were isolated from anonymized healthy donors as described earlier. Prior to CD4^+ TEM cells separation, dead cells were removed using the Dead Cell Removal Microbead Kit (Miltenyi Biotec B.V & CO. KG, Bergisch Gladbach, Germany). Untouched CD4^+ TEM lymphocytes were purified through magnetic cell sorting (negative selection) with the CD4^+ Effector Memory T Cell Isolation Kit (Miltenyi Biotec B.V. & Co. KG, Bergisch Gladbach, Germany) according to the manufacturer's protocol.
(§2) For TCR-specific stimulation, anti-human CD3 monoclonal antibodies (clone OKT3, BioLegend, San Diego, CA) were bound to the surface of 24-well cell culture plates at a density of 5 µg/well in phosphate-buffered saline (PBS) overnight at 4°C. Before seeding the cells, the wells were washed twice with PBS to remove the unbound antibodies. The CD4^+ TEM cells were divided into four groups: 1) unstimulated, 2) stimulated, 3) stimulated + TrMgTx (8.5 nM), and 4) stimulated + UrMgTx (5 nM). The cells were seeded at a density of 0.5×10^6 cells/ml per well, and when indicated, the cells were preincubated with the toxins for 5 min prior to the stimulation. The plate was incubated at 37°C in 5% CO2 for 24 h. Each experiment was performed in technical duplicates on three different donors.
(§3) For quantifying the extent of TEM cell stimulation, cells were washed with PBS buffer containing 1% of fetal bovine serum (FBS) and stained with fluorescein isothiocyanate (FITC)–labeled anti-human CD154 (CD40L) antibody (clones 24–31, BioLegend, San Diego, CA) and PerCP/Cyanine5.5–labeled anti-human CD25 (IL2R) antibody (clone BC96, BioLegend) at 4°C for 20 min. Cells were washed with the PBS + 1% FBS buffer and resuspended in 150 µl in PBS + 1% FBS. Samples were measured with NovoCyte 3000 RYB flow cytometer (ACEA Bioscience Inc.), FITC and PerCP/Cyanine5.5 were excited by using blue laser (488 nm), and 530/30 nm and 695/40 nm emission filters were used, respectively. Flow cytometry data were analyzed using FCS Express 6.0 (De Novo Software, Glendale, CA). Briefly, cells were gated on the basis of their FSC and SSC parameters, and then, the histograms corresponding to CD40L and CD25 were plotted as peak-normalized overlays. Mean fluorescent intensities (MFIs) were computed from the histograms and normalized to that of their stimulated (S) but not treated control. The negative (unlabeled) and unstimulated control (US) were always used for comparison.
(In general: Flow cytometry measures light scatter and fluorescence of single cells or particles in a stream.)

For assay [2], the target named is T1, hKv1.3 (Homo sapiens, UniProt P22001).
T1 construct: endogenous in cells
T1 sequence (P22001 whole entry): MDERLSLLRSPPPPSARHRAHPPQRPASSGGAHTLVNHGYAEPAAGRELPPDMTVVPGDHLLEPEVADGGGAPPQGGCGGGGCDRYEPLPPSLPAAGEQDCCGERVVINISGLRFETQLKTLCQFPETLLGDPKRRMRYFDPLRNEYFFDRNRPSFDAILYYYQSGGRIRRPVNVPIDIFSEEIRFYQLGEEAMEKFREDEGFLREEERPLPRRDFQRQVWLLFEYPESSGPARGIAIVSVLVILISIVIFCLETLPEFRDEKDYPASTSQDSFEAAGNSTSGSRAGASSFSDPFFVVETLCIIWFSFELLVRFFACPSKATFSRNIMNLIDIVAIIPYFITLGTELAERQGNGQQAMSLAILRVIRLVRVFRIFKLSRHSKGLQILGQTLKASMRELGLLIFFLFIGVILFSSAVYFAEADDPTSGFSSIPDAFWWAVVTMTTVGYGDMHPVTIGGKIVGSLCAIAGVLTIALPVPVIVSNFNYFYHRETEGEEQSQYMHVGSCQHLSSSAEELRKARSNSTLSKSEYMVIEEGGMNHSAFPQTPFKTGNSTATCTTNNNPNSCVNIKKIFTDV
As to the kind of experiment: Binding and unbinding kinetics (wash-in/washout, patch-clamp) on hKv1.3. The settings on record: for koff: Kv1.3, calculated from averaged τ off; for koff / k on: 3-5 independent experiments; for k on: Kv1.3, calculated from averaged τ on and τ off, 200 pM toxin; for τ on: hKv1.3, 200 pM toxin, wash-in, single exponential; for τ on / τ off: n = 4, ± SEM; for τ off: hKv1.3, washout after 200 pM toxin. Here is the method: (§4) Electrophysiological measurements were performed by using the patch-clamp technique in whole-cell or outside-out patch configuration and voltage clamp mode using the Multiclamp 700B amplifier and Axon Digidata1440 digitizer (Molecular Devices, Sunnyvale, CA). Micropipettes were pulled from GC150F-15 borosilicate capillaries (Harvard Apparatus Kent, United Kingdom), resulting in 3–5 MΩ resistance in the bath solution. The extracellular solution contained 145 mM NaCl, 5 mM KCl, 1 mM MgCl2, 2.5 mM CaCl2, 5.5 mM glucose, and 10 mM HEPES, with a pH of 7.35 and an osmolarity between 302 and 308 mOsM/L. When the toxins were dissolved at different molar concentrations in bath solution, it was supplemented with 0.1 mg/ml of BSA. The pipette filling (intracellular) solution consisted of 140 mM KF, 2 mM MgCl2, 1 mM CaCl2, 10 mM HEPES, and 11 mM EGTA, with a pH of 7.22 and an osmolarity of 295 mOsM/L.
(§5) To record the hKv1.3 and hKv1.2 currents, 15- to 200-ms-long depolarization impulses were applied at +50 mV from a holding potential of −120 mV every 15 s. The pClamp 10.1 software package was used to acquire and analyze the measured data. Current traces were low-pass filtered by the analog four-pole Bessel filters of the amplifiers, and the sampling frequency was set at 20 kHz, at least twice that of the filter cutoff frequency. The effect of the toxin at a given molar concentration was calculated as the remaining current fraction (RCF = I/I0, where I0 is the peak current in the absence of the toxin and I is the peak current at equilibrium block at a given toxin concentration). The data points on dose–response curves represent the mean of 3–4 individual measurements. The data points were fitted with a three-parameter [inhibition] vs response model, RCF = Bottom + [Top–Bottom)/(1+([toxin]/K d )], where Top and Bottom values were constrained to 1 and 0, respectively, and [toxin] is the concentration of the toxin. The best fit curve gave K d of the given toxin.
(§6) To examine the effect of additional residues of TrMgTx on binding to the ion channel, the association and dissociation rate constants of both the versions of the toxin were determined for the Kv1.3 channel of the activated human T lymphocytes and the hKv1.2 channel transiently expressed in the CHO cell. Whole-cell currents were recorded after applying the toxin (200 pM for Kv1.3 and 100 pM for Kv1.2) to the extracellular solution until the equilibrium block was achieved (wash-in), and then removed it by perfusing the toxin-free control solution (washout). Peak currents at a time point t [I(t)] were normalized to the peak current in the absence of the toxin [Inorm(t) = I(t)/I0], and these were plotted as a function of time. The association time constant (τ on ) was determined by fitting the data points during the wash-in procedure in the one-phase decay equation: Inorm(t)=((1−RCF)×e^−t/τon)+RCF , with the RCF = I/I0 at the equilibrium block as defined in the Electrophysiology section. The dissociation time constant (τ off ) was determined by fitting the following equation to the data points during the washout procedure: Inorm(t)=RCF+(1−e^−t/τoff).
(§7) The association rate constant (k on ) and dissociation rate constant (k off ) were calculated from the measured time constants, assuming a simple bimolecular interaction between the channel and toxin, and by using the following equations ([Peter et al., 2001]), with τon and τoff defined above, and [toxin] as the toxin concentration: kon=1−(τon×koff)/τon×[toxin], koff=1/τoff.

The target in assay [3] is T1, hKv1.3. It is filed as cell-based. The settings on record: for inhibition of whole-cell current at block equilibrium: 200 pM toxin, hKv1.3.
Experimental: The human venous blood from anonymized healthy donors was obtained from a blood bank. The peripheral blood mononuclear cells were isolated through Histopaque1077 (Sigma-Aldrich Hungary, Budapest, Hungary) density gradient centrifugation. Cells obtained were resuspended in RPMI 1640 medium containing 10% fetal calf serum (Sigma-Aldrich), 100 µg/ml penicillin, 100 µg/ml streptomycin, and 2 mM L glutamine, seeded in a 24-well culture plate at a density of 5 x 10^5 cells per ml, and grown in a 5% CO2 incubator at 37°C for 2–5 days. Phytohemagglutinin A (Sigma-Aldrich) was added in 5, 7, and 10 µg/ml concentrations to the medium to boost the potassium ion channel expression.
(§8) Electrophysiological measurements were performed by using the patch-clamp technique in whole-cell or outside-out patch configuration and voltage clamp mode using the Multiclamp 700B amplifier and Axon Digidata1440 digitizer (Molecular Devices, Sunnyvale, CA). Micropipettes were pulled from GC150F-15 borosilicate capillaries (Harvard Apparatus Kent, United Kingdom), resulting in 3–5 MΩ resistance in the bath solution. The extracellular solution contained 145 mM NaCl, 5 mM KCl, 1 mM MgCl2, 2.5 mM CaCl2, 5.5 mM glucose, and 10 mM HEPES, with a pH of 7.35 and an osmolarity between 302 and 308 mOsM/L. When the toxins were dissolved at different molar concentrations in bath solution, it was supplemented with 0.1 mg/ml of BSA. The pipette filling (intracellular) solution consisted of 140 mM KF, 2 mM MgCl2, 1 mM CaCl2, 10 mM HEPES, and 11 mM EGTA, with a pH of 7.22 and an osmolarity of 295 mOsM/L.
To record the hKv1.3 and hKv1.2 currents, 15- to 200-ms-long depolarization impulses were applied at +50 mV from a holding potential of −120 mV every 15 s. The pClamp 10.1 software package was used to acquire and analyze the measured data. Current traces were low-pass filtered by the analog four-pole Bessel filters of the amplifiers, and the sampling frequency was set at 20 kHz, at least twice that of the filter cutoff frequency. The effect of the toxin at a given molar concentration was calculated as the remaining current fraction (RCF = I/I0, where I0 is the peak current in the absence of the toxin and I is the peak current at equilibrium block at a given toxin concentration). The data points on dose–response curves represent the mean of 3–4 individual measurements. […]
Pharmacological activity of both versions of rMgTx was evaluated by studying their effect on the hKv1.2 and hKv1.3 ion channels. The hKv1.2 current was recorded in CHO cells, which heterologously expressed the hKv1.2 ion channel, and hKv1.3 current was recorded in the human peripheral blood lymphocytes. […]
Assay [4] deals with T2, hKv1.2 (Homo sapiens, UniProt P16389).
T2 construct: GFP (from vector pCMV6-GFP); host or cells: CHO cells, transient transfection with Lipofectamine 2000
T2 sequence (P16389 whole entry): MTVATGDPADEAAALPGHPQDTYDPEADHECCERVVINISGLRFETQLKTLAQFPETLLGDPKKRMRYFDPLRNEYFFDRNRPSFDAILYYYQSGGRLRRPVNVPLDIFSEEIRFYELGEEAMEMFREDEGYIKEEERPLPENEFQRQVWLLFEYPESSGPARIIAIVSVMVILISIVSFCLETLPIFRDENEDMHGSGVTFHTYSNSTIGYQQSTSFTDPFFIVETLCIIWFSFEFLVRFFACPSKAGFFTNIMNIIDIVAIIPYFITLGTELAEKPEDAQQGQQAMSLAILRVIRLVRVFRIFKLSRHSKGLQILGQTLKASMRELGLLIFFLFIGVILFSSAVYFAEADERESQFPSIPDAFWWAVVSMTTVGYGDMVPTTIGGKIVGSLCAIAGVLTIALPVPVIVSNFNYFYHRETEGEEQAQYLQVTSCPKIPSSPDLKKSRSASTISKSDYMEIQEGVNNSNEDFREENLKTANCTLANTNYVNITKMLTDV
Put plainly: Binding and unbinding kinetics (wash-in/washout, patch-clamp) on hKv1.2. The settings on record: for k on: Kv1.2, calculated from averaged τ on and τ off, 100 pM toxin; for τ on: hKv1.2, 100 pM toxin, wash-in; for τ on / τ off: ± SEM; for recovery from block on washout: hKv1.2, toxin-free solution after 100 pM; for τ off: hKv1.2, washout after 100 pM toxin. Here is the method:
CHO cells were transiently transfected with the vector pCMV6-GFP (OriGene Technologies, Germany) encoding the human Kv1.2 ion channel using Lipofectamine 2000 (Invitrogen, Carlsbad, CA), following the manufacturer's protocol, and grown under the standard conditions as used previously ([Bagdány et al., 2005]). GFP-positive transfectants were identified with Nikon TE 2000U fluorescence microscope (Nikon, Tokyo, Japan), and currents were recorded after 24 h post transfection.
as §4, §5, §6, §7

Assay [5] deals with IL2R (CD25) expression in CD4^+ TEM cells. As to the kind of experiment: IL2R (CD25) expression in anti-CD3-stimulated CD4+ TEM lymphocytes (flow cytometry). The format is cell-based, human. The settings on record: for inhibition of IL2R expression: 24 h anti-CD3 stimulation, three donors, technical duplicates, MFI normalized to stimulated; for effect on upregulation of IL2R expression: ∼100× K d (TrMgTx 8.5 nM, UrMgTx 5 nM), 24 h, anti-CD3.
Excerpt: as §1, §2, §3

The target of assay [6] is T2, hKv1.2. Put plainly: Patch-clamp block of hKv1.2 current (dose-response / equilibrium block) in transfected CHO cells. It is filed as cell-based. The settings on record: for block of whole-cell current at equilibrium: 100 pM toxin, hKv1.2, CHO cells. A general note: Patch clamp records ionic current or voltage across a cell membrane.
Experimental: as §8
Pharmacological activity of both versions of rMgTx was evaluated by studying their effect on the hKv1.2 and hKv1.3 ion channels. […] A custom-built perfusion system was used to apply toxins at a very small perfusion rate of 200 µl/min. […]

Bridge positions count the residues as written; N and C are the ends. Ends that are not written are not given here. Peptide text beside a SMILES is read from it.

As a reminder, the koff is the rate constant with which the complex falls apart. For the molecule “EFHHHHHHLQIEGRTIINVKCTSPKQCLPPCKAQFGQSAGAKCMNGKCKCYPH (disulfide 21-43, 27-48, 31-50) [TrMgTx]”, the “CD40L expression of stimulated, treated cells vs unstimulated cells” value in assay [1] is reported as “comparable to that of unstimulated cells”. For the same molecule, in assay [1] (TrMgTx 8.5 nM), the “inhibition of CD40L expression” value is approximately 36%. The “effect on upregulation of CD40L expression” value in assay [1] is reported as “significantly reduced”. For the same molecule, the koff at hKv1.3 [2] was 0.00179 s⁻¹; at hKv1.2 [4] (Kv1.2, calculated from averaged τ off, 3-5 independent experiments) it was 0.0019 s⁻¹. The k on is 2.14e+07 M⁻¹ s⁻¹ at hKv1.3 [2] and 3.05e+07 M⁻¹ s⁻¹ at hKv1.2 [4] (3-5 independent experiments). Also, the “association rate, fold lower than UrMgTx” value on hKv1.3 [2] (hKv1.3) and at hKv1.2 [4] (hKv1.2) was approximately 1.6 fold in each case. The τ on on hKv1.3 [2] is 168 ± 19 s; at hKv1.2 [4], 202 ± 2.3 s. For the same molecule, the τ off at hKv1.3 [2] was 568 ± 84 s; at hKv1.2 [4] it was 532 ± 69 s. In addition, the “inhibition of whole-cell current at block equilibrium” value against hKv1.3 [3] is listed as approximately 70%. For the same molecule, the “potency relative to UrMgTx” value was “slightly less potent” at hKv1.3 [3] (hKv1.3, dose-response) and “nearly fivefold less potent” on hKv1.2 [6] (hKv1.2, dose-response). In addition, on hKv1.2 [4], the “recovery from block on washout” value was “slow but full recovery”. Besides, in assay [5] (TrMgTx 8.5 nM), the “inhibition of IL2R expression” value is reported as approximately 39%. Moreover, the “effect on upregulation of IL2R expression” value in assay [5] is “significantly reduced”. Moreover, at hKv1.2 [6], the “block of whole-cell current at equilibrium” value was “about 60%”.

Take `CC[C@H](C)[C@H](NC(=O)[C@@H](N)[C@@H](C)O)C(=O)N[C@H](C(=O)N[C@@H](CC(N)=O)C(=O)N[C@H](C(=O)N[C@@H](CCCCN)C(=O)N[C@H]1CSSC[C@@H]2NC(=O)[C@H](CCCCN)NC(=O)[C@H](C)NC(=O)CNC(=O)[C@H](C)NC(=O)[C@H](CO)NC(=O)[C@H](CCC(N)=O)NC(=O)CNC(=O)[C@H](Cc3ccccc3)NC(=O)[C@H](CCC(N)=O)NC(=O)[C@H](C)NC(=O)[C@H](CCCCN)NC(=O)[C@@H]3CSSC[C@@H](C(=O)N[C@@H](Cc4ccc(O)cc4)C(=O)N4CCC[C@H]4C(=O)N[C@@H](Cc4c[nH]cn4)C(=O)O)NC(=O)[C@H](CCCCN)NC(=O)[C@H](CSSC[C@H](NC(=O)[C@H](CCC(N)=O)NC(=O)[C@H](CCCCN)NC(=O)[C@@H]4CCCN4C(=O)[C@H](CO)NC(=O)[C@H]([C@@H](C)O)NC1=O)C(=O)N[C@@H](CC(C)C)C(=O)N1CCC[C@H]1C(=O)N1CCC[C@H]1C(=O)N3)NC(=O)[C@H](CCCCN)NC(=O)CNC(=O)[C@H](CC(N)=O)NC(=O)[C@H](CCSC)NC2=O)C(C)C)[C@@H](C)CC` [UrMgTx] (H-TIINVKCTSPKQCLPPCKAQFGQSAGAKCMNGKCKCYPH-OH; disulfide 7-29, 13-34, 17-36; N-terminus and C-terminus assumed): in assay [1], the “CD40L expression of stimulated, treated cells vs unstimulated cells” value was “comparable to that of unstimulated cells” and the “effect on upregulation of CD40L expression” value is given as “significantly reduced”. Moreover, in assay [1] (UrMgTx 5 nM), the “inhibition of CD40L expression” value is approximately 45%. Moreover, on hKv1.3 [2], the off-rate (koff) was 0.00179 s⁻¹, the k on is 3.43e+07 M⁻¹ s⁻¹, the τ on was 116 ± 10 s and the τ off stood at 560 ± 28 s. Also, on hKv1.3 [2] (hKv1.3, unpaired t test, n = 4, p < 0.001), the “k on compared with TrMgTx” value was “significantly higher”. Further, the “inhibition of whole-cell current at block equilibrium” value against hKv1.3 [3] is given as approximately 80%. For the same molecule, the k on at hKv1.2 [4] (3-5 independent experiments) is 4.62e+07 M⁻¹ s⁻¹. Moreover, at hKv1.2 [4], the τ on is recorded as 191 ± 12 s; the “recovery from block on washout” value is “slow and partial recovery”; the τ off worked out at 1308 ± 351 s. Besides, the “k off compared with TrMgTx” value at hKv1.2 [4] (hKv1.2, unpaired t test, n = 3-4, p < 0.001) was “substantially lower”. Further, the “k on compared with TrMgTx” value at hKv1.2 [4] (hKv1.2, unpaired t test, n = 3-4, p < 0.01) is given as “slightly higher”. Further, the “inhibition of IL2R expression” value in assay [5] (UrMgTx 5 nM) was approximately 45%. The “effect on upregulation of IL2R expression” value in assay [5] was “significantly reduced”. Further, the “block of whole-cell current at equilibrium” value at hKv1.2 [6] was approximately 90%.

charybdotoxin [reference compound]: the “reduction in peak current, positive control” value with hKv1.2 [6] (14 nM charybdotoxin, hKv1.2, data not shown) was “Around 50%”.
